Reference: patent US20110172147A1, “NEUROPEPTIDE-2 RECEPTOR (Y-2R) AGONISTS” (priority 2009, published 2011)
Like-named read-outs stand apart in the source and are kept apart here.

What was measured:
Format in all cases: cell-based
Y1R = target: T1, Y1R (Homo sapiens, UniProt P25929); assay: CaFlux Assay (FLIPR), Y1R
T1 sequence (P25929 1-384): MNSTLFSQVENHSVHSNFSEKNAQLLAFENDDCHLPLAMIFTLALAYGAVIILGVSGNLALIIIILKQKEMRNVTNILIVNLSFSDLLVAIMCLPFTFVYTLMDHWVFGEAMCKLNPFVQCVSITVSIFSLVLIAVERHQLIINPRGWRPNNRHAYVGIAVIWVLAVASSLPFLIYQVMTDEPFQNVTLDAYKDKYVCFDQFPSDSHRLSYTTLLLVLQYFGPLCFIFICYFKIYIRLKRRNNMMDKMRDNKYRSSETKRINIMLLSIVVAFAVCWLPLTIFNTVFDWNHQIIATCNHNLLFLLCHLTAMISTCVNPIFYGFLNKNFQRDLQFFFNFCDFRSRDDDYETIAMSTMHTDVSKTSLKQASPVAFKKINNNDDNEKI

Y4R = Y4R (Homo sapiens, UniProt P50391); assay: CaFlux Assay (FLIPR), Y4R
Y4R, sequence (P50391 whole entry): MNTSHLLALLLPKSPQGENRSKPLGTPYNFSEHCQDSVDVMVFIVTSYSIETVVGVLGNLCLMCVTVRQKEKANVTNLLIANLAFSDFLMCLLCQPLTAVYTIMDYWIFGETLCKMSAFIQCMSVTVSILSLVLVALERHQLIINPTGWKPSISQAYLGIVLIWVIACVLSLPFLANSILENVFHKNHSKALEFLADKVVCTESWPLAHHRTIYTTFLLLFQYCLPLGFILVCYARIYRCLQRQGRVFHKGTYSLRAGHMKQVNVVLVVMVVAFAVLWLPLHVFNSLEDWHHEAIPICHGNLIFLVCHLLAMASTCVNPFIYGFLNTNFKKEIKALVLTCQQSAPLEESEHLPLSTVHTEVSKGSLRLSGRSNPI

hNPY2R = target: T2, hNPY2R (Homo sapiens, UniProt P49146); assay: CaFlux Assay (FLIPR), Y2R; parameters: expressed in transfected cells; host or cells: HEK-293 stably transfected with G protein chimera Gαqi9
T2 sequence (P49146 1-381): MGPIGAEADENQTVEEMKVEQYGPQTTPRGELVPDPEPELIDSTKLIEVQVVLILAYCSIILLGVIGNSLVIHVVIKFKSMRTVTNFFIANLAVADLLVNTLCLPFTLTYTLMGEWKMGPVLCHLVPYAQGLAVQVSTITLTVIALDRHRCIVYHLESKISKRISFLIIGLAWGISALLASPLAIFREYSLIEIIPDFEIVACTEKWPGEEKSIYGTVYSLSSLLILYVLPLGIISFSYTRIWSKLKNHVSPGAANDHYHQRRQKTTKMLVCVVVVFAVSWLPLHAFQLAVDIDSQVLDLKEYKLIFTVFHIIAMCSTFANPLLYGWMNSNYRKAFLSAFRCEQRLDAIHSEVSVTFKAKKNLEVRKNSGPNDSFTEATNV
How it was run: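 Read-out was the peak increase in Calcium-3 fluorescence on FLIPR, monitored 100 s after compound addition, with each well's pre-stimulation reading as zero and data given as % of the positive control's maximal response. Cells were HEK-293 stably carrying Gαqi9 plus receptor.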

[1] = FLIPR; read-out: Y1R EC50 (nM) FLIPR
[2] = FLIPR; read-out: Y4R EC50 (nM) FLIPR
[3] = CaFlux (FLIPR), HEK-293 cells with Gαqi9 and human NPY2 receptor; read-out: Y2R EC50 (nM) FLIPR

Row | EC50 (Y1R; [1]) [nM] | EC50 (Y4R; [2]) [nM] | EC50 (hNPY2R; [3]) [nM] | SMILES | EC50 (Y1R; read-out: Y1R EC50 (nM) FLIPR; FLIPR) [nM] | EC50 (Y4R; read-out: Y4R EC50 (nM) FLIPR; FLIPR) [nM] | EC50 (hNPY2R; read-out: Y2R EC50 (nM) FLIPR; CaFlux (FLIPR), HEK-293 cells with Gαqi9 and human NPY2 receptor) [nM]
1 | > 6000 | > 6000 | 0.097 | CCCCCCCCCCCCCCCCCCCC(=O)NCCCCCC(=O)N[C@H](C(=O)N[C@@H](CCCCNC(=O)CCOCCOCCOCCOCCOCCOCCOCCOCCOCCOCCOCCOCCOCCOCCOCCOCCOCCOCCOCCOCCOCCOCCOCCOC)C(=O)N1CCN(c2ccc3ncn(CC(=O)N[C@@H](CCCNC(=N)N)C(=O)N[C@@H](Cc4c[nH]cn4)C(=O)N[C@@H](Cc4ccc(O)cc4)C(=O)N[C@@H](CC(C)C)C(=O)N[C@@H](CC(N)=O)C(=O)N[C@@H](Cc4c[nH]c5ccccc45)C(=O)N[C@H](C(=O)N[C@H](C(=O)N[C@@H](CCCNC(=N)N)C(=O)N[C@@H](CCC(N)=O)C(=O)N(C)[C@@H](CCCNC(=N)N)C(=O)N[C@@H](Cc4ccc(O)cc4)C(N)=O)[C@@H](C)O)C(C)C)c(=O)c3c2)CC1)[C@@H](C)CC [Example 35] |  |  | 
2 | > 6000 | > 6000 | 0.139 | CC[C@H](C)[C@H](NC(C)=O)C(=O)N[C@@H](CCCCNC(=O)CCOCCOCCOCCOCCOCCOCCOCCOCCOCCOCCOCCOCCOCCOCCOCCOCCOCCOCCOCCOCCOCCOCCOCCOC)C(=O)N1CCN(c2ccc3ncn(CC(=O)N[C@@H](CCCNC(=N)N)C(=O)N[C@@H](Cc4c[nH]cn4)C(=O)N[C@@H](Cc4ccc(O)cc4)C(=O)N[C@@H](CC(C)C)C(=O)N[C@@H](CC(N)=O)C(=O)N[C@@H](Cc4c[nH]c5ccccc45)C(=O)N[C@H](C(=O)N[C@H](C(=O)N[C@@H](CCCNC(=N)N)C(=O)N[C@@H](CCC(N)=O)C(=O)N(C)[C@@H](CCCNC(=N)N)C(=O)N[C@@H](Cc4ccc(O)cc4)C(N)=O)[C@@H](C)O)C(C)C)c(=O)c3c2)CC1 [Example 21] |  |  | 
3 | > 6000 | > 6000 | 9.6 | CCCCCCCCCCCCCCCCCCCC(=O)N[C@@H](CCS(=O)(=O)O)C(=O)N[C@@H](CCS(=O)(=O)O)C(=O)NCCCC[C@H](NC(=O)[C@@H](NC(=O)CCOCCOCCOCCOCCOCCOCCOCCOCCOCCOCCOCCOCCOCCOCCOCCOCCOCCOCCOCCOCCOCCOCCOCCOC)[C@@H](C)CC)C(=O)N1CCN(c2ccc3ncn(CC(=O)N[C@@H](CCCNC(=N)N)C(=O)NC(Cc4c[nH]cn4)C(=O)N[C@@H](Cc4ccc(O)cc4)C(=O)NC(CC(C)C)C(=O)N[C@@H](CC(N)=O)C(=O)NC(Cc4c[nH]c5ccccc45)C(=O)N[C@H](C(=O)N[C@H](C(=O)N[C@@H](CCCNC(=N)N)C(=O)NC(CCC(N)=O)C(=O)N(C)[C@@H](CCCNC(=N)N)C(=O)NC(Cc4ccc(O)cc4)C(N)=O)[C@@H](C)O)C(C)C)c(=O)c3c2)CC1 (stereo partly drawn) [Example 27] |  |  | 
4 | > 6000 | > 6000 | 11.1 | CCCCCCCCCCCCCCCCCCCC(=O)N[C@@H](CCS(=O)(=O)O)C(=O)N[C@@H](CCS(=O)(=O)O)C(=O)NCCCC[C@H](NC(=O)[C@@H](NC(=O)CCOCCOCCOCCOCCOCCOCCOCCOCCOCCOCCOCCOCCOCCOCCOCCOCCOCCOCCOCCOCCOCCOCCOCCOC)[C@@H](C)CC)C(=O)N1CCN(c2ccc3ncn(CC(=O)N[C@@H](CCCNC(N)=O)C(=O)NC(Cc4c[nH]cn4)C(=O)N[C@@H](Cc4ccc(O)cc4)C(=O)NC(CC(C)C)C(=O)N[C@@H](CC(N)=O)C(=O)NC(Cc4c[nH]c5ccccc45)C(=O)N[C@H](C(=O)N[C@H](C(=O)N[C@@H](CCCNC(=N)N)C(=O)NC(CCC(N)=O)C(=O)N(C)[C@@H](CCCNC(=N)N)C(=O)NC(Cc4ccc(O)cc4)C(N)=O)[C@@H](C)O)C(C)C)c(=O)c3c2)CC1 (stereo partly drawn) [Example 28] |  |  | 
5 | > 6000 | > 6000 | 0.156 | CCCCCCCCCCCCCCCC(=O)N[C@@H](CCS(=O)(=O)O)C(=O)N[C@@H](CCS(=O)(=O)O)C(=O)NCCCC[C@H](NC(=O)[C@@H](NC(=O)CCOCCOCCOCCOCCOCCOCCOCCOCCOCCOCCOCCOCCOCCOCCOCCOCCOCCOCCOCCOCCOCCOCCOCCOC)[C@@H](C)CC)C(=O)N1CCN(c2ccc3ncn(CC(=O)N[C@@H](CCCNC(=N)N)C(=O)NC(Cc4c[nH]cn4)C(=O)N[C@@H](Cc4ccc(O)cc4)C(=O)NC(CC(C)C)C(=O)N[C@@H](CC(N)=O)C(=O)NC(Cc4c[nH]c5ccccc45)C(=O)N[C@H](C(=O)N[C@H](C(=O)N[C@@H](CCCNC(=N)N)C(=O)NC(CCC(N)=O)C(=O)N(C)[C@@H](CCCNC(=N)N)C(=O)NC(Cc4ccc(O)cc4)C(N)=O)[C@@H](C)O)C(C)C)c(=O)c3c2)CC1 (stereo partly drawn) [Example 29] |  |  | 
6 |  |  |  | CC[C@H](C)[C@H](NC(=O)[C@H](CCC(=O)O)NC(=O)[C@H](CCC(=O)O)NC(=O)CCCCCCCCCCCCCCC(=O)O)C(=O)N[C@@H](CCCCNC(=O)CCOCCOCCOCCOCCOCCOCCOCCOCCOCCOCCOCCOCCOCCOCCOCCOC)C(=O)N1CCN(c2ccc3ncn(CC(=O)N[C@@H](CCCNC(=N)N)C(=O)N[C@@H](Cc4c[nH]cn4)C(=O)N[C@@H](Cc4ccc(O)cc4)C(=O)N[C@@H](CC(C)C)C(=O)N[C@@H](CC(N)=O)C(=O)N[C@@H](Cc4c[nH]c5ccccc45)C(=O)N[C@H](C(=O)N[C@H](C(=O)N[C@@H](CCCNC(=N)N)C(=O)N[C@@H](CCC(N)=O)C(=O)N(C)[C@@H](CCCNC(=N)N)C(=O)N[C@@H](Cc4ccc(O)cc4)C(N)=O)[C@@H](C)O)C(C)C)c(=O)c3c2)CC1 [Example 54] | > 6000 | > 6000 | 292
